In PMC7408072 (Pharmaceutics, 2020):
Peptide text beside a SMILES is read from it. * marks the point of attachment. 5TAMRA = CN(C)c1ccc2c(c1)Oc1cc(N(C)C)ccc1C21OC(=O)c2cc(C(=O)*)ccc21

What was measured:
[1] = tested on: primary bovine brain capillary endothelial cells co-cultured with primary rat astrocytes; assay: Peptide stability on the in vitro bovine BBB model; format: in vitro ADME; conditions: FBS-free differentiation medium, 50 µM peptide, bovine BCEC/rat astrocyte co-culture, 37 °C, 90 rpm, HPLC C18, 220 and 543 nm, mean ± SD, N = 3
Procedure: BCECs co-cultured with rat astrocytes: a batch of capillary suspension was thawed and the DMSO removed by centrifugation in DMEM complete at 500× g for 5 min at room temperature. The pellet was re-suspended in DMEM complete and transferred to a culture flask (T75) coated with collagen and fibronectin (both 0.01 mg/mL in PBS). The capillary fragments were allowed to settle for 4–6 h in a humidified incubator (37 °C, 10% CO2) before changing the media to growth medium(+) (DMEM complete/ACM (1:1) with 125 µg/mL heparin) supplemented with 4 µg/mL pyromycin. On day 3, the BCECs received fresh growth medium(+) and rat astrocytes were seeded on the bottom of collagen and fibronectin coated (both 0.1 mg/mL in PBS) Transwell® plate permeable supports (Corning, Corning, NY, USA; 120,000 cells/1.12 cm^2 support with 0.4 µm pore size) in DMEM complete (37 °C, 10% CO2). On day 5, the media in the Transwell® plate was replaced by growth medium(-) (DMEM complete with 125 µg/mL heparin) and the endothelial cells detached from the flask using trypsin-EDTA (Thermo Fischer Scientific, Bedford, MA, USA). The remaining trypsin-EDTA was removed by centrifugation in DMEM complete at 1070× g for 5 min at room temperature. The endothelial cells were re-suspended in growth medium(-) and seeded on the apical side of the Transwell® plate permeable supports (100,000 cells/support). On day 8, the medium was changed to differentiation medium (DMEM containing 50 mM N-Tris-(hydroxymethyl)methyl-2-aminoethanesulfonic acid (TES), 10% FBS, 1% non-essential amino acids, 100 µg/mL penicillin/streptomycin (100 U/mL), 2 mM L-glutamine, 312.5 µM 8-(4-CPT)cyclic adenosine monophosphate, 0.5 µM dexamethasone, and 17.5 µM RO-20-1724). On day 11, the bovine BBB model was ready for use as evident by the measured transendothelial electrical resistance (TEER) values for each filter prior to experimental start.
Stability on the in vitro bovine BBB model: the differentiation medium was gently aspirated from the BCEC monolayers and replaced with 300 and 600 µL of 37 °C FBS-free differentiation medium containing 50 µM peptide on the luminal and abluminal side, respectively. The cells were incubated at 37 °C with horizontal shaking (90 rpm) for 4 h. Samples (10 µL) were withdrawn at 0, 10, 20, 30, 45, 60, 120, 180, and 240 min and two volumes of ice-cold ACN were immediately added prior to analysis by HPLC using an AdvanceBio Peptide Map column (C18, 4.6 × 150 mm, 2.7 µm particle size; Agilent, Glostrup, Denmark) connected to a Prominence system (LC-20 AD, SIL20 AC, SPD-M20A PDA, and CTO-20A modules; Shimadzu, Kyoto, Japan). Mobile phase A consisted of 95% ultrapure water and 5% ACN with 0.1% TFA and mobile phase B of 95% ACN and 5% ultrapure water with 0.1% TFA. […]

[2] = tested on: bovine BCEC monolayers co-cultured with rat astrocytes; assay: Transport and cell uptake of 3-5 kDa FITC-dextran in the presence of peptide (bovine model); format: cell-based; conditions: 1 mg/mL FITC-dextran with 100 µM peptide, luminal, 3 h, abluminal FITC fluorescence; N = 3, n = 3
Procedure: Transport across bovine or mouse BCEC monolayers co-cultured with rat astrocytes was carried out over 3 h at 37 °C with horizontal shaking (90 rpm). TEER was measured at room temperature using an Endohm 12 cup (World Precision Instruments, Sarasota, FL, USA) connected to a Millicell-ERS device (Millipore, Bedford, MA, USA). TEER was measured before application of the peptides and after each experiment. The bovine model had initial TEER values ranging from 771 to 1332 Ω·cm^2, whereas the mouse model had initial TEER values ranging from 136 to 217 Ω·cm^2.
FITC fluorescence was measured using a NovoStar fluorescence plate reader (BMG Labtech, Offenburg, Germany) with excitation/emission set to 494/518 nm. […] The filters were washed with PBS thrice for 5 min, mounted on glass slides under coverslips using Immu-Mount™ mounting media (Thermo Fischer Scientific, Bedford, MA, USA), and imaged using single wavelength excitation on a Leica SP2 laser-scanning confocal microscope (Leica Microsystems, Wetzlar, Germany).

Row | Structure (SMILES) | % remaining after 4 h of luminal incubation on the BCECs [1] | transendothelial permeation of 3-5 kDa FITC-dextran applied with peptide, compared to FITC-dextran alone [2]
1 | CN(C)c1ccc2c(c1)Oc1cc(N(C)C)ccc1C21OC(=O)c2cc(C(=O)N[C@@H](Cc3ccc(O)cc3)C(=O)NCC(=O)N[C@@H](CCCNC(=N)N)C(=O)N[C@@H](CCCCN)C(=O)N[C@@H](CCCCN)C(=O)N[C@@H](CCCNC(=N)N)C(=O)N[C@@H](CCCNC(=N)N)C(=O)N[C@@H](CCC(N)=O)C(=O)N[C@@H](CCCNC(=N)N)C(=O)N[C@@H](CCCNC(=N)N)C(=O)N[C@@H](CCCNC(=N)N)C(=O)O)ccc21 [TAMRA-Tat] | 76.9% ± 5.6% | –
2 | CC[C@H](C)[C@H](NC(=O)[C@H](CO)NC(=O)[C@H](CO)NC(=O)[C@H](CC(C)C)NC(=O)[C@H](CCCCN)NC(=O)c1ccc2c(c1)C(=O)OC21c2ccc(N(C)C)cc2Oc2cc(N(C)C)ccc21)C(=O)N[C@@H](CCC(=O)O)C(=O)N[C@@H](CO)C(=O)N[C@@H](CC(=O)O)C(=O)N[C@H](C(=O)O)C(C)C [TAMRA-NR2B9c] (5TAMRA-KLSSIESDV-OH) | 95.7% ± 1.6% | –
3 | CC[C@H](C)[C@H](NC(=O)[C@H](CO)NC(=O)[C@H](CO)NC(=O)[C@H](CC(C)C)NC(=O)[C@H](CCCCN)NC(=O)[C@H](CCCNC(=N)N)NC(=O)[C@H](CCCNC(=N)N)NC(=O)[C@H](CCCNC(=N)N)NC(=O)[C@H](CCC(N)=O)NC(=O)[C@H](CCCNC(=N)N)NC(=O)[C@H](CCCNC(=N)N)NC(=O)[C@H](CCCCN)NC(=O)[C@H](CCCCN)NC(=O)[C@H](CCCNC(=N)N)NC(=O)CNC(=O)[C@H](Cc1ccc(O)cc1)NC(=O)c1ccc2c(c1)C(=O)OC21c2ccc(N(C)C)cc2Oc2cc(N(C)C)ccc21)C(=O)N[C@@H](CCC(=O)O)C(=O)N[C@@H](CO)C(=O)N[C@@H](CC(=O)O)C(=O)N[C@H](C(=O)O)C(C)C [TAMRA-Tat-NR2B9c] (5TAMRA-YGRKKRRQRRRKLSSIESDV-OH) | 58.6% ± 13.1% | –
4 | CC[C@H](C)[C@H](NC(=O)CCOCCOCCN(CCOCCOCCC(=O)N[C@H](C(=O)N[C@@H](CCC(=O)O)C(=O)N[C@H](C(=O)N[C@@H](CC(=O)O)C(=O)N[C@H](C(=O)O)C(C)C)[C@@H](C)O)[C@@H](C)CC)C(=O)[C@H](CCCNC(=N)N)NC(=O)[C@H](CCCNC(=N)N)NC(=O)[C@H](CCCNC(=N)N)NC(=O)[C@H](CCC(N)=O)NC(=O)[C@H](CCCNC(=N)N)NC(=O)[C@H](CCCNC(=N)N)NC(=O)[C@H](CCCCN)NC(=O)[C@H](CCCCN)NC(=O)[C@H](CCCNC(=N)N)NC(=O)CNC(=O)[C@H](Cc1ccc(O)cc1)NC(=O)c1ccc2c(c1)C(=O)OC21c2ccc(N(C)C)cc2Oc2cc(N(C)C)ccc21)C(=O)N[C@@H](CCC(=O)O)C(=O)N[C@H](C(=O)N[C@@H](CC(=O)O)C(=O)N[C@H](C(=O)O)C(C)C)[C@@H](C)O [TAMRA-Tat-N-dimer] | 85.0% ± 6.0% | did not increase
